# PubChem BioAssay (NCI)
#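 Tested at 5 concentrations; 48 h exposure; 96-well plates; endpoints linearly interpolated, else capped at highest concentration. At the TGI there is no net growth.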
# Legend:
# Assay in all cases: NCI anticancer screen, dose series, 48 h
# 786-0 renal = test system: 786-0 renal
# A498 renal = test system: A498 renal
# A549 NSCLC = test system: A549 NSCLC
# ACHN renal = test system: ACHN renal
# CAKI-1 renal = test system: CAKI-1 renal
# CCRF-CEM leukemia = test system: CCRF-CEM leukemia
# COLO 205 colon = test system: COLO 205 colon
# HCC-2998 colon = test system: HCC-2998 colon
# HCT-116 colon = test system: HCT-116 colon
# HCT-15 colon = test system: HCT-15 colon
# HL-60(TB) leukemia = test system: HL-60(TB) leukemia
# HOP-62 NSCLC = test system: HOP-62 NSCLC
# HOP-92 NSCLC = test system: HOP-92 NSCLC
# IGROV1 ovarian = test system: IGROV1 ovarian
# K-562 leukemia = test system: K-562 leukemia
# KM12 colon = test system: KM12 colon
# LOX IMVI melanoma = test system: LOX IMVI melanoma
# M14 melanoma = test system: M14 melanoma
# MALME-3M melanoma = test system: MALME-3M melanoma
# MCF7 breast = test system: MCF7 breast
# MDA-N = test system: MDA-N
# MOLT-4 leukemia = test system: MOLT-4 leukemia
# NCI-H226 lung = test system: NCI-H226 lung
# NCI-H23 lung = test system: NCI-H23 lung
# NCI-H460 lung = test system: NCI-H460 lung
# NCI/ADR-RES ovarian = test system: NCI/ADR-RES ovarian
# OVCAR-3 ovarian = test system: OVCAR-3 ovarian
# OVCAR-5 ovarian = test system: OVCAR-5 ovarian
# OVCAR-8 ovarian = test system: OVCAR-8 ovarian
# PC-3 prostate = test system: PC-3 prostate
# RPMI-8226 leukemia = test system: RPMI-8226 leukemia
# RXF 393 renal = test system: RXF 393 renal
# SF-268 CNS = test system: SF-268 CNS
# SF-295 CNS = test system: SF-295 CNS
# SF-539 CNS = test system: SF-539 CNS
# SK-MEL-2 melanoma = test system: SK-MEL-2 melanoma
# SK-MEL-28 melanoma = test system: SK-MEL-28 melanoma
# SK-MEL-5 melanoma = test system: SK-MEL-5 melanoma
# SK-OV-3 ovarian = test system: SK-OV-3 ovarian
# SN12C renal = test system: SN12C renal
# SNB-19 CNS = test system: SNB-19 CNS
# SNB-75 CNS = test system: SNB-75 CNS
# SR leukemia = test system: SR leukemia
# SW-620 colon = test system: SW-620 colon
# T-47D breast = test system: T-47D breast
# TK-10 renal = test system: TK-10 renal
# U251 CNS = test system: U251 CNS
# UO-31 renal = test system: UO-31 renal
# BT-549 breast = test system: BT-549 breast
# DU-145 prostate = test system: DU-145 prostate
# EKVX NSCLC = test system: EKVX NSCLC
# HT29 colon = test system: HT29 colon
# MDA-MB-231 breast = test system: MDA-MB-231 breast
# MDA-MB-435 = test system: MDA-MB-435
# NCI-H522 lung = test system: NCI-H522 lung
# OVCAR-4 ovarian = test system: OVCAR-4 ovarian
# UACC-257 melanoma = test system: UACC-257 melanoma
# UACC-62 melanoma = test system: UACC-62 melanoma
# HS 578T breast = test system: HS 578T breast
smiles,measurement,setting,value
C/C(=N\NC(=O)c1ccncc1)c1ccccc1F,TGI,786-0 renal,> 10 µM
same,TGI,A498 renal,> 10 µM
same,TGI,A549 NSCLC,> 10 µM
same,TGI,ACHN renal,> 10 µM
same,TGI,CAKI-1 renal,> 10 µM
same,TGI,CCRF-CEM leukemia,> 10 µM
same,TGI,COLO 205 colon,> 10 µM
same,TGI,HCC-2998 colon,> 10 µM
same,TGI,HCT-116 colon,> 10 µM
same,TGI,HCT-15 colon,> 10 µM
same,TGI,HL-60(TB) leukemia,> 10 µM
same,TGI,HOP-62 NSCLC,> 10 µM
same,TGI,HOP-92 NSCLC,> 10 µM
same,TGI,IGROV1 ovarian,> 10 µM
same,TGI,K-562 leukemia,> 10 µM
same,TGI,KM12 colon,> 10 µM
same,TGI,LOX IMVI melanoma,> 10 µM
same,TGI,M14 melanoma,> 10 µM
same,TGI,MALME-3M melanoma,> 10 µM
same,TGI,MCF7 breast,> 10 µM
same,TGI,MDA-N,> 10 µM
same,TGI,MOLT-4 leukemia,> 10 µM
same,TGI,NCI-H226 lung,> 10 µM
same,TGI,NCI-H23 lung,> 10 µM
same,TGI,NCI-H460 lung,> 10 µM
same,TGI,NCI/ADR-RES ovarian,> 10 µM
same,TGI,OVCAR-3 ovarian,> 10 µM
same,TGI,OVCAR-5 ovarian,> 10 µM
same,TGI,OVCAR-8 ovarian,> 10 µM
same,TGI,PC-3 prostate,> 10 µM
same,TGI,RPMI-8226 leukemia,> 10 µM
same,TGI,RXF 393 renal,> 10 µM
same,TGI,SF-268 CNS,> 10 µM
same,TGI,SF-295 CNS,> 10 µM
same,TGI,SF-539 CNS,> 10 µM
same,TGI,SK-MEL-2 melanoma,> 10 µM
same,TGI,SK-MEL-28 melanoma,> 10 µM
same,TGI,SK-MEL-5 melanoma,> 10 µM
same,TGI,SK-OV-3 ovarian,> 10 µM
same,TGI,SN12C renal,> 10 µM
same,TGI,SNB-19 CNS,> 10 µM
same,TGI,SNB-75 CNS,> 10 µM
same,TGI,SR leukemia,> 10 µM
same,TGI,SW-620 colon,> 10 µM
same,TGI,T-47D breast,> 10 µM
same,TGI,TK-10 renal,> 10 µM
same,TGI,U251 CNS,> 10 µM
same,TGI,UO-31 renal,> 10 µM
O=C(O)NCC1CCCCC1 (tested in a mixture with another compound),TGI,786-0 renal,77.3 µM
same,TGI,A498 renal,34.1 µM
same,TGI,A549 NSCLC,> 100 µM
same,TGI,ACHN renal,48.1 µM
same,TGI,BT-549 breast,72.6 µM
same,TGI,CAKI-1 renal,> 100 µM
same,TGI,CCRF-CEM leukemia,> 100 µM
same,TGI,DU-145 prostate,50.7 µM
same,TGI,EKVX NSCLC,> 100 µM
same,TGI,HCT-116 colon,88.7 µM
same,TGI,HCT-15 colon,63.6 µM
same,TGI,HL-60(TB) leukemia,38.5 µM
same,TGI,HOP-62 NSCLC,33.8 µM
same,TGI,HOP-92 NSCLC,24.4 µM
same,TGI,HT29 colon,66.6 µM
same,TGI,IGROV1 ovarian,23.3 µM
same,TGI,K-562 leukemia,35.9 µM
same,TGI,KM12 colon,29.7 µM
same,TGI,LOX IMVI melanoma,28.6 µM
same,TGI,M14 melanoma,> 100 µM
same,TGI,MALME-3M melanoma,7.15 µM
same,TGI,MDA-MB-231 breast,44.9 µM
same,TGI,MDA-MB-435,58.1 µM
same,TGI,MDA-N,47.7 µM
same,TGI,MOLT-4 leukemia,> 100 µM
same,TGI,NCI-H226 lung,41.2 µM
same,TGI,NCI-H23 lung,81.2 µM
same,TGI,NCI-H460 lung,26.1 µM
same,TGI,NCI-H522 lung,28 µM
same,TGI,NCI/ADR-RES ovarian,83.8 µM
same,TGI,OVCAR-3 ovarian,19.8 µM
same,TGI,OVCAR-4 ovarian,> 100 µM
same,TGI,OVCAR-5 ovarian,> 100 µM
same,TGI,OVCAR-8 ovarian,31.7 µM
same,TGI,PC-3 prostate,46.4 µM
same,TGI,RPMI-8226 leukemia,9.73 µM
same,TGI,RXF 393 renal,45.9 µM
same,TGI,SF-268 CNS,38.4 µM
same,TGI,SF-295 CNS,50.3 µM
same,TGI,SK-MEL-2 melanoma,30.9 µM
same,TGI,SK-MEL-28 melanoma,> 100 µM
same,TGI,SK-MEL-5 melanoma,28.7 µM
same,TGI,SN12C renal,28.1 µM
same,TGI,SNB-19 CNS,> 100 µM
same,TGI,SNB-75 CNS,36.6 µM
same,TGI,SR leukemia,72 µM
same,TGI,SW-620 colon,52.4 µM
same,TGI,TK-10 renal,> 100 µM
same,TGI,U251 CNS,20.3 µM
same,TGI,UACC-257 melanoma,63.2 µM
same,TGI,UACC-62 melanoma,34.2 µM
same,TGI,UO-31 renal,> 100 µM
NC(=O)C1Cc2cc3c(cc21)OCO3 (centres undefined),TGI,786-0 renal,> 100 µM
same,TGI,A549 NSCLC,> 100 µM
same,TGI,ACHN renal,> 100 µM
same,TGI,BT-549 breast,> 100 µM
same,TGI,CAKI-1 renal,> 100 µM
same,TGI,COLO 205 colon,> 100 µM
same,TGI,DU-145 prostate,> 100 µM
same,TGI,EKVX NSCLC,> 100 µM
same,TGI,HCC-2998 colon,> 100 µM
same,TGI,HCT-116 colon,> 100 µM
same,TGI,HCT-15 colon,> 100 µM
same,TGI,HOP-62 NSCLC,> 100 µM
same,TGI,HS 578T breast,> 100 µM
same,TGI,HT29 colon,> 100 µM
same,TGI,IGROV1 ovarian,> 100 µM
same,TGI,KM12 colon,> 100 µM
same,TGI,LOX IMVI melanoma,> 100 µM
same,TGI,M14 melanoma,> 100 µM
same,TGI,MALME-3M melanoma,> 100 µM
same,TGI,MCF7 breast,> 100 µM
same,TGI,MDA-MB-231 breast,> 100 µM
same,TGI,MDA-N,> 100 µM
same,TGI,NCI-H226 lung,> 100 µM
same,TGI,NCI-H23 lung,> 100 µM
same,TGI,NCI-H460 lung,> 100 µM
same,TGI,NCI-H522 lung,> 100 µM
same,TGI,NCI/ADR-RES ovarian,> 100 µM
same,TGI,OVCAR-3 ovarian,> 100 µM
same,TGI,OVCAR-5 ovarian,> 100 µM
same,TGI,OVCAR-8 ovarian,> 100 µM
same,TGI,PC-3 prostate,> 100 µM
same,TGI,RXF 393 renal,> 100 µM
same,TGI,SF-268 CNS,> 100 µM
same,TGI,SF-295 CNS,> 100 µM
same,TGI,SF-539 CNS,> 100 µM
same,TGI,SK-MEL-5 melanoma,> 100 µM
same,TGI,SK-OV-3 ovarian,> 100 µM
same,TGI,SNB-19 CNS,> 100 µM
same,TGI,SNB-75 CNS,> 100 µM
same,TGI,TK-10 renal,> 100 µM
same,TGI,UACC-257 melanoma,> 100 µM
same,TGI,UACC-62 melanoma,> 100 µM
same,TGI,UO-31 renal,> 100 µM
CC(=O)N(C(C)=O)n1c(-c2ccccc2)n[nH]c1=O,TGI,786-0 renal,> 100 µM
same,TGI,A549 NSCLC,> 100 µM
same,TGI,ACHN renal,> 100 µM
same,TGI,BT-549 breast,> 100 µM
same,TGI,CCRF-CEM leukemia,> 100 µM
same,TGI,COLO 205 colon,> 100 µM
same,TGI,DU-145 prostate,> 100 µM
same,TGI,EKVX NSCLC,> 100 µM
same,TGI,HCC-2998 colon,> 100 µM
same,TGI,HCT-116 colon,> 100 µM
same,TGI,HCT-15 colon,> 100 µM
same,TGI,HOP-62 NSCLC,> 100 µM
same,TGI,HOP-92 NSCLC,> 100 µM
same,TGI,HT29 colon,> 100 µM
same,TGI,IGROV1 ovarian,> 100 µM
same,TGI,K-562 leukemia,> 100 µM
same,TGI,KM12 colon,> 100 µM
same,TGI,LOX IMVI melanoma,> 100 µM
same,TGI,M14 melanoma,> 100 µM
same,TGI,MCF7 breast,> 100 µM
same,TGI,MDA-MB-231 breast,> 100 µM
same,TGI,MDA-MB-435,> 100 µM
same,TGI,MDA-N,> 100 µM
same,TGI,MOLT-4 leukemia,> 100 µM
same,TGI,NCI-H23 lung,> 100 µM
same,TGI,NCI-H522 lung,> 100 µM
same,TGI,NCI/ADR-RES ovarian,> 100 µM
same,TGI,OVCAR-3 ovarian,> 100 µM
same,TGI,OVCAR-4 ovarian,> 100 µM
same,TGI,OVCAR-5 ovarian,> 100 µM
same,TGI,OVCAR-8 ovarian,> 100 µM
same,TGI,PC-3 prostate,> 100 µM
same,TGI,RPMI-8226 leukemia,> 100 µM
same,TGI,RXF 393 renal,> 100 µM
same,TGI,SF-268 CNS,> 100 µM
same,TGI,SF-295 CNS,> 100 µM
same,TGI,SF-539 CNS,> 100 µM
same,TGI,SK-MEL-2 melanoma,> 100 µM
same,TGI,SK-MEL-28 melanoma,> 100 µM
same,TGI,SK-MEL-5 melanoma,> 100 µM
same,TGI,SK-OV-3 ovarian,> 100 µM
same,TGI,SN12C renal,> 100 µM
same,TGI,SNB-19 CNS,> 100 µM
same,TGI,SNB-75 CNS,> 100 µM
same,TGI,SR leukemia,> 100 µM
same,TGI,SW-620 colon,> 100 µM
same,TGI,TK-10 renal,> 100 µM
same,TGI,U251 CNS,> 100 µM
same,TGI,UACC-257 melanoma,> 100 µM
same,TGI,UACC-62 melanoma,> 100 µM
same,TGI,UO-31 renal,> 100 µM
